{"source": "paper PMC3026633", "about": "(Neuropharmacology, 2010)", "key": {"α1E122Cβ2γ2 GABAR": {"target": "α1E122Cβ2γ2 GABAR (Rattus norvegicus, UniProt P18508+P62813+P63138, E149C)", "sequence (P62813 28-455 E149C)": "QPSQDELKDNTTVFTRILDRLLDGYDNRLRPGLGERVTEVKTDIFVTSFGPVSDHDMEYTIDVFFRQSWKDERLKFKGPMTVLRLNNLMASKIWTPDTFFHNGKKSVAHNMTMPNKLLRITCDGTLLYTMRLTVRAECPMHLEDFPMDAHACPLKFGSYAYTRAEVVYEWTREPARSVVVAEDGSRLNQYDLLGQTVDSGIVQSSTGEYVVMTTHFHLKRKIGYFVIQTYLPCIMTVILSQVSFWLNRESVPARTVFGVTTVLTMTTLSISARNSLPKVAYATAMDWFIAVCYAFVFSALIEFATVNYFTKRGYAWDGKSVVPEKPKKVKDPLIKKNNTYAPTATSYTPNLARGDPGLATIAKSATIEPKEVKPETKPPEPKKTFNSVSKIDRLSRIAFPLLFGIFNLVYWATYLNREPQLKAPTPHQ", "sequence (P63138 25-474 limits assumed)": "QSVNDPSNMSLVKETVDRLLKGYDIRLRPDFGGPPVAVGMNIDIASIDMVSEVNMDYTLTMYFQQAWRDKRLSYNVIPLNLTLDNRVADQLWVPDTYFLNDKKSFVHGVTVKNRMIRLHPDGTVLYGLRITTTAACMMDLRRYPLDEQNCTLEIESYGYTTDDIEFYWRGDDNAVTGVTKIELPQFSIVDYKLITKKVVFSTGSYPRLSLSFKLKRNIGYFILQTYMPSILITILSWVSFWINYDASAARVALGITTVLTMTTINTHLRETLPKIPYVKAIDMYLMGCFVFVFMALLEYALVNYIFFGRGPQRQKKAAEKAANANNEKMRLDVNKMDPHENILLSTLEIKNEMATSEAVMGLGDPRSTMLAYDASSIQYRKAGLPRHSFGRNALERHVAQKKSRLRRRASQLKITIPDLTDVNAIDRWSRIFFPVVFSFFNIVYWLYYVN", "sequence (P18508 39-466)": "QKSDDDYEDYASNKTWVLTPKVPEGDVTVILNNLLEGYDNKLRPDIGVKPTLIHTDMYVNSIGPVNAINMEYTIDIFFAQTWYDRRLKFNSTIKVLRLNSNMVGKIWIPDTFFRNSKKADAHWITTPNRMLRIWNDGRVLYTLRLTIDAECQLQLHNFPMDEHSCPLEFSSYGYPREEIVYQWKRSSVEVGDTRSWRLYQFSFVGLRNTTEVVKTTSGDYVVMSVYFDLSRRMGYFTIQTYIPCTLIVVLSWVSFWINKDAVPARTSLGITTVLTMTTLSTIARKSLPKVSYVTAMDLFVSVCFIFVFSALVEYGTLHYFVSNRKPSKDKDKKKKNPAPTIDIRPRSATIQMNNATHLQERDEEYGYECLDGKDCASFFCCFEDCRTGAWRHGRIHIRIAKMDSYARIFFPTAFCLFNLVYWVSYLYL", "experiment": "Two-electrode voltage clamp of GABA-gated current in Xenopus oocytes", "type": "cell-based"}, "α1R131Cβ2γ2 GABAR": {"target": "α1R131Cβ2γ2 GABAR (Rattus norvegicus, UniProt P18508+P62813+P63138, R158C)", "sequence (P62813 28-455 R158C)": "as the sequence (P62813 28-455 E149C) above, with C122E, R131C counted along it", "sequence (P63138 25-474 limits assumed)": "as the sequence (P63138 25-474 limits assumed) above", "sequence (P18508 39-466)": "as the sequence (P18508 39-466) above", "experiment": "Two-electrode voltage clamp of GABA-gated current in Xenopus oocytes", "type": "cell-based", "settings": "1μM flumazenil"}, "α1β2P206Cγ2 GABAR": {"target": "α1β2P206Cγ2 GABAR (Rattus norvegicus, UniProt P18508+P62813+P63138, P230C)", "sequence (P62813 28-455)": "as the sequence (P62813 28-455 E149C) above, with C122E counted along it", "sequence (P63138 25-474 P230C limits assumed)": "as the sequence (P63138 25-474 limits assumed) above, with P206C counted along it", "sequence (P18508 39-466)": "as the sequence (P18508 39-466) above", "experiment": "Two-electrode voltage clamp of GABA-gated current in Xenopus oocytes", "type": "cell-based", "settings": "100nM DMCM, saturating"}, "wild-type α1β2γ2 GABAR": {"target": "wild-type α1β2γ2 GABAR (Rattus norvegicus, UniProt P18508+P62813+P63138)", "sequence (P62813 28-455)": "as the sequence (P62813 28-455 E149C) above, with C122E counted along it", "sequence (P63138 25-474 limits assumed)": "as the sequence (P63138 25-474 limits assumed) above", "sequence (P18508 39-466)": "as the sequence (P18508 39-466) above", "settings": "WT GABARs; DMCM; ref Boileau and Czajkowski, 1999; Hanson and Czajkowski, 2008; cited from earlier work"}}}
{"smiles": "CCOC(=O)c1ncn2c1CN(C)C(=O)c1cc(F)ccc1-2", "note": "[flumazenil]", "values": [{"measurement": "effect on GABA-gated current", "setting": "α1E122Cβ2γ2 GABAR; 1μM flumazenil", "result": "had no effect"}, {"measurement": "effect on GABA-gated current", "setting": "α1R131Cβ2γ2 GABAR", "result": "had no effect"}]}
{"smiles": "CCc1c(C(=O)OC)ncc2[nH]c3cc(OC)c(OC)cc3c12", "note": "[DMCM, 3-carbomethoxy-4-ethyl-6,7-dimethoxy-β-carboline]", "values": [{"measurement": "inhibition of IGABA (IGABA+DRUG/IGABA)", "setting": "α1E122Cβ2γ2 GABAR; 100nM DMCM, saturating", "result": 0.45, "unit": "fold"}, {"measurement": "inhibition of IGABA (IGABA+DRUG/IGABA)", "setting": "α1β2P206Cγ2 GABAR", "result": 0.45, "unit": "fold"}, {"measurement": "maximal attenuation of GABA current (IGABA+DRUG/IGABA)", "setting": "wild-type α1β2γ2 GABAR", "result": 0.62, "unit": "fold"}]}
